The target of data set [1] is T1, synthetic red click beetle luciferase RD (RDver5.2; YG#81-6G01 variant A224H/S247H/N346I/H348Q/R351G), SEQ ID NO: 222 (Pyrophorus plagiophthalamus, UniProt Q718C1).
T1 construct: C-terminal tail changed
Put plainly: Km determination with partially purified enzyme (Table 3), RD. It is filed as biochemical. The text has this: (§1) The parent click beetle luciferase YG#81-6G1 (“YG”), and the synthetic click beetle luciferase genes GRver5.1 (“GR”), RDver5.2 (“RD”), and RD156-1H9 were cloned into the four pGL3 reporter vectors (Promega Corp.): • pGL3-Basic=no promoter, no enhancer • pGL3-Control=SV40 promoter, SV40 enhancer • pGL3-Enhancer=SV40 enhancer (3′ to luciferase coding sequences) • pGL3-Promoter=SV40 promoter. The primers employed in the assembly of GR and RD synthetic genes facilitated the cloning of those genes into pRAM vectors. To introduce the genes into pGL3 vectors (Promega Corp., Madison, Wis.) for analysis in mammalian cells, each gene in a pRAM vector (pRAM RDver5.1, pRAM GRver5.1, and pRAM RD156-1H9) was amplified to introduce an Nco I site at the 5′ end and an Xba I site at the 3′ end of the gene. The primers for pRAM RDver5.1 and pRAM GRver5.1 were: […]
(§2) Partially purified enzymes expressed from the synthetic genes and the parent gene were employed to determine Km for luciferin and ATP (see Table 3).

Data set [2] deals with click beetle luciferase YG#81-6G01 (mutant of wild type LucPplYG, SEQ ID NO: 23), SEQ ID NO: 24. The following applies: vs wild type LucPplYG; cited from earlier work.
For another data set, the system named is MCF-7 cells. Description: TPA induction of Renilla luciferase co-reporter vectors in transfected MCF-7 cells (Table 13). As to conditions: Homo sapiens, MCF7, 24 h, 0.2 nM TPA, vs untreated. It is filed as cell-based. On the procedure:
Experimental treatment sometimes may activate cryptic sites within the gene and cause induction or suppression of the co-reporter expression, which would compromise its function as co-reporter for normalization of transfection efficiencies. One example is that TPA induces expression of co-reporter vectors harboring the wild-type gene when transfecting MCF-7 cells. 500 ng pRL-TK (native), 5 μg native and synthetic pRG-B, 2.5 μg native and synthetic pRG-TK were transfected per well of MCF-7 cells. 100 ng/well pGL3-control (firefly luc+) was co-transfected with all RL plasmids. Carrier DNA, pUC19, was used to bring the total DNA transfected to 5.1 μg/well. 15.3 μl TransFast Transfection Reagent (Promega Corp., Madison, Wis.) was added per well. Sixteen hours later, cells were trypsinized, pooled and split into six wells of a 6-well dish and allowed to attach to the well for 8 hours. Three wells were then treated with the 0.2 nM of the tumor promoter, TPA (phorbol-12-myristate-13-acetate, Calbiochem #524400-S), and three wells were mock treated with 20 μl DMSO. Cells were harvested with 0.4 ml Passive Lysis Buffer 24 hours post TPA addition.

Data set [3] addresses T2, click beetle luciferase RDver5.2 variant RD156-1A5 (Pyrophorus plagiophthalamus, UniProt Q718C1, A224Y/A287S/C127T/C60V/F45V, form not given/H348Q/I288V/I91V/K85T/L262F/N249T/N346I/S247H/V325A/V389I/Y183F).
T2 construct: lysate of bacterial cells
Put plainly: Km for luciferin, lysates of bacterial cells (Table 6), RD156-1A5. It is filed as biochemical. As to conditions: read-out: Km Luciferin, CCLR lysate diluted 1:10, HEPES pH 7.8. On the procedure:
(§3) Protocols and procedures used for the directed evolution are detailed in see PCT/WO9914336. DNA from the four clones with lower Km was combined and three libraries of random mutants were produced. The libraries were screened with the robot and clones with the highest LI values were selected. These clones were shuffled together and another robotic screen was completed with an incubation temperature of 46° C. The three clones with the highest LI values were RD156-0B4, RD156-1A5, and RD156-1H9.
(§4) The Km values for luciferin and the luminescence intensity relative to RDver5.2 were determined for all three clones in several independent experiments. All cells samples were processed with CCLR lysis buffer (E1483, Promega Corp., Madison, Wis.) and diluted 1:10 into buffer (25 mM HEPES pH 7.8, 5% glycerol, 1 mg/ml BSA, 150 mM NaCl). Table 7 summarizes the results (Lum: luminescence values were normalized to optical density; measurements for independent experiments are separated by forward slashes) from expression in bacterial cells. RD156-1H9, the clone with the highest luminescence intensity (5 to 10-fold increase) also has an about 2-fold higher Km for luciferin.

In data set [4] the target is T3, click beetle luciferase RDver5.2 variant RD156-0B4 (Pyrophorus plagiophthalamus, UniProt Q718C1, A224Y/A287S/C127T/C60V/F45V, form not given/H348Q/I288V/I91V/K85T/L262F/N249T/N346I/S247H/V325A/V389I/Y183F).
T3 construct: lysate of bacterial cells
Put plainly: Km for luciferin, lysates of bacterial cells (Table 6), RD156-0B4. It is filed as biochemical. The following applies: read-out: Km Luciferin, CCLR lysate diluted 1:10, HEPES pH 7.8. On the procedure: as §3, §4

Data set [5] concerns the target T4, click beetle luciferase RDver5.2 variant RD156-1H9 (M2I/S349T/K488T/E538V), SEQ ID NO: 223 (Pyrophorus plagiophthalamus, UniProt Q718C1).
T4 construct: C-terminal tail changed; lysate of bacterial cells
It is filed as biochemical. As to conditions: for Km: read-out: Km Luciferin, CCLR lysate diluted 1:10, HEPES pH 7.8. On the procedure: Protocols and procedures used for the directed evolution are detailed in see PCT/WO9914336. […] The libraries were screened with the robot and clones with the highest LI values were selected. These clones were shuffled together and another robotic screen was completed with an incubation temperature of 46° C.
The Km values for luciferin and the luminescence intensity relative to RDver5.2 were determined for all three clones in several independent experiments. All cells samples were processed with CCLR lysis buffer (E1483, Promega Corp., Madison, Wis.) and diluted 1:10 into buffer (25 mM HEPES pH 7.8, 5% glycerol, 1 mg/ml BSA, 150 mM NaCl). Table 7 summarizes the results (Lum: luminescence values were normalized to optical density; measurements for independent experiments are separated by forward slashes) from expression in bacterial cells.

For data set [6], the target named is T5, synthetic red click beetle luciferase RDver5.2 (YG#81-6G01 variant A224H/S247H/N346I/H348Q/R351G), SEQ ID NO: 222 (Pyrophorus plagiophthalamus, UniProt Q718C1).
T5 construct: C-terminal tail changed; lysate of bacterial cells
Description: Km for luciferin, lysates of bacterial cells (Table 6), RDver5.2. The following applies: read-out: Km Luciferin, CCLR lysate diluted 1:10, HEPES pH 7.8. It is filed as biochemical. On the procedure: as §4

Substrate in data set [7]: O=C(O)[C@H]1CSC(c2nc3ccc(O)cc3s2)=N1
Description: Km determination with partially purified enzyme (Table 3), YG parent. It is filed as biochemical, Pyrophorus plagiophthalamus. As to conditions: other: partially purified enzyme.
Excerpt: as §2

Substrate in data set [8]: Nc1ncnc2c1ncn2[C@@H]1O[C@H](COP(=O)(O)OP(=O)(O)OP(=O)(O)O)[C@@H](O)[C@H]1O
The description is as above. The following applies: other: partially purified enzyme. It is filed as biochemical, Pyrophorus plagiophthalamus.
Excerpt: as §2

Substrate in data set [9]: O=C(O)[C@H]1CSC(c2nc3ccc(O)cc3s2)=N1
Description: Km for luciferin, lysates of bacterial cells (Table 6), GRver5.1. It is filed as biochemical, Pyrophorus plagiophthalamus. On the procedure: as §4

Substrate in data set [10]: O=C(O)[C@H]1CSC(c2nc3ccc(O)cc3s2)=N1
Description: Km determination with partially purified enzyme (Table 3), GR. It is filed as biochemical, Pyrophorus plagiophthalamus. The following applies: other: partially purified enzyme.
Excerpt: as §1, §2

Substrate in data set [11]: Nc1ncnc2c1ncn2[C@@H]1O[C@H](COP(=O)(O)OP(=O)(O)OP(=O)(O)O)[C@@H](O)[C@H]1O
The data set is described as above. It is filed as biochemical, Pyrophorus plagiophthalamus. The following applies: other: partially purified enzyme.
Excerpt: as §1, §2

The text below walks through data of patent publication US7906282B2, “Synthetic nucleic acid molecule compositions and methods of preparation” (Promega Corporation, priority 2000, dated 2011).

Changes are numbered by the printed parent chain. In names and notes the source's numbering stands. Read-outs that look alike come from different tables or passages of the source.

T5 sequence (Q718C1 entry or part of it, stated change not applied): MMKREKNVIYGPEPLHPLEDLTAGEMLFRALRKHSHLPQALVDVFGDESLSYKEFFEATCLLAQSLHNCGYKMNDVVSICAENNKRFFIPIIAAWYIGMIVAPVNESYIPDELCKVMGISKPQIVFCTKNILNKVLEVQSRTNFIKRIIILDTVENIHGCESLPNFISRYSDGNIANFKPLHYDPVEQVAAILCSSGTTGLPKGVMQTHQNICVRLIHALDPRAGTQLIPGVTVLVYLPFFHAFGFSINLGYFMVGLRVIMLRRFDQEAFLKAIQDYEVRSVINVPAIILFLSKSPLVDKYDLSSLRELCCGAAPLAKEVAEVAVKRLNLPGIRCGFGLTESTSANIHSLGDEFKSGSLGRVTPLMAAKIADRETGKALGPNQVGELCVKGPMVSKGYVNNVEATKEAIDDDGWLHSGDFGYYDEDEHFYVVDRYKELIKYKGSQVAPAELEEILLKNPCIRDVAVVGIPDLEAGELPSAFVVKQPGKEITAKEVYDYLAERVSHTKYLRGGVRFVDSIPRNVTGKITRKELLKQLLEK
T4 sequence (Q718C1 entry or part of it, stated change not applied): as above
T1 sequence (Q718C1 entry or part of it, stated change not applied): as above

In the case of `Nc1ncnc2c1ncn2[C@@H]1O[C@H](COP(=O)(O)OP(=O)(O)OP(=O)(O)O)[C@@H](O)[C@H]1O` [ATP], the Km in [1] (read-out: KM (ATP)) amounted to 46 µM. The “KM for ATP compared to the wild type” value in data set [2] is recorded as “lower”.

In the case of `CCCCCCCCCCCCCC(=O)O[C@@H]1[C@@H](C)[C@@]2(O)[C@@H](C=C(CO)C[C@]3(O)C(=O)C(C)=C[C@@H]23)[C@@H]2C(C)(C)[C@]12OC(C)=O` [TPA, phorbol-12-myristate-13-acetate], the fold induction with MCF-7 cells (pRG-B (final, synthetic Renilla gene)) turned out to be 1.47; in the data set with MCF-7 cells (pRG-B (native Renilla gene)) it was 8; in the data set on MCF-7 cells (pRG-tk (final, synthetic Renilla gene)), 0.88; in the data set with MCF-7 cells (pRG-tk (native Renilla gene)), 4.36; in the data set with MCF-7 cells (pRL-tk (native Renilla gene)) it was 4.4.

Regarding `O=C(O)[C@H]1CSC(c2nc3ccc(O)cc3s2)=N1` [luciferin], the Km was determined as 13 µM in data set [3] (independent experiment 1); 13 µM in data set [3] (independent experiment 2); 8 µM in [4] (independent experiment 1); 10 µM in data set [4] (independent experiment 2); 24.5 µM in data set [1] (read-out: KM (LH2)); 20 µM in [5] (independent experiment 1). Also, the Km was 23 µM in data set [5] (independent experiment 2); 23 µM in data set [5] (independent experiment 3); 12 µM in data set [6] (prep #1, independent experiment 1); 14 µM in data set [6] (prep #1, independent experiment 2); 14 µM in data set [6] (prep #1, independent experiment 3); 40 µM in data set [6] (prep #2, independent experiment 1). The Km in data set [6] (prep #2, independent experiment 2) is 50 µM. Moreover, the “KM for luciferin compared to the wild type” value in data set [2] was “lower”. The “luciferin K, fold higher” value in data set [5] (relative to GRver5.1) is “approximately 40 fold”. For the same molecule, the “Km for luciferin, fold higher” value in data set [5] (relative to RDver5.2) is reported as “about 2 fold”.

B1: click beetle (Pyrophorus plagiophthalamus) luciferase YG#81-6G01 (YG parent, mutant of wild type LucPplYG), SEQ ID NO: 24 (Pyrophorus plagiophthalamus; … (protein)
chain: MMKREKNVIYGPEPLHPLEDLTAGEMLFRALRKHSHLPQALVDVVGDESLSYKEFFEATVLLAQSLHNCGYKMNDVVSICAENNTRFFIPVIAAWYIGMIVAPVNESYIPDELCKVMGISKPQIVFTTKNILNKVLEVQSRTNFIKRIIILDTVENIHGCESLPNFISRYSDGNIANFKPLHFDPVEQVAAILCSSGTTGLPKGVMQTHQNICVRLIHALDPRAGTQLIPGVTVLVYLPFFHAFGFSITLGYFMVGLRVIMFRRFDQEAFLKAIQDYEVRSVINVPSVILFLSKSPLVDKYDLSSLRELCCGAAPLAKEVAEVAAKRLNLPGIRCGFGLTESTSANIHSLRDEFKSGSLGRVTPLMAAKIADRETGKALGPNQVGELCIKGPMVSKGYVNNVEATKEAIDDDGWLHSGDFGYYDEDEHFYVVDRYKELIKYKGSQVAPAELEEILLKNPCIRDVAVVGIPDLEAGELPSAFVVKQPGKEITAKEVYDYLAERVSHTKYLRGGVRFVDSIPRNVTGKITRKELLKQLLEKAGG
notes: wild-type residues 540-543 replaced by 3 other residues
Consider B1, for which the Km in [7] amounted to 2 μM μM; in data set [8], 17 μM μM.

B2: synthetic green click beetle luciferase GRver5.1 (YG#81-6G01 variant A224V), SEQ ID NO: 31 (Pyrophorus plagiophthalamus; … (protein)
chain: B1 chain with A224V
notes: C-terminal tail changed; lysate of bacterial cells
For B2, the Km amounted to 0.5 µM in data set [9] (other: prep #1, CCLR lysate diluted 1:10, HEPES pH 7.8) and 3 µM in [9] (other: prep #2, CCLR lysate diluted 1:10, HEPES pH 7.8).

B3: synthetic green click beetle luciferase GR (GRver5.1; YG#81-6G01 variant A224V), SEQ ID NO: 31 (Pyrophorus plagiophthalamus; … (protein)
chain: B1 chain with A224V
notes: C-terminal tail changed
With B3, the figures for the Km in [10] and in data set [11] were 1.3 μM μM and 25 μM μM, respectively.

The term fold induction denotes the ratio of treated to control signal.
